Results published in US20060100263A1, “Antipyretic compositions and methods” (priority 2004, published 2006).
Structures can show the parent of a compound that is named as a salt. Marks after values point to notes of the source that are not given here.

Key:
α1 adrenergic receptor = assay: [3H]prazosin binding, rat cerebral cortex preparation
Method: At the end of 60 min, the assay was terminated by vacuum filtration and the amount of radioactivity deposited on the filter measured by scintillation counting.

α2 adrenergic receptor = α2 adrenergic receptor binding
[1] = oral temperature of normal human subjects; assay type: in vivo; details: 600 mg PO single dose; for Oral Temperature at Indicated Times of Treatment: normal humans
Method: Normal humans received either a placebo or 600 mg of bicifadine HCl (PO). Oral temperature readings were taken as part of an assessment of vital signs before and after administration of a single dose.
Oral temperature readings were taken as part of an assessment of vital signs before and after administration of a single dose of bicifadine to normal humans. The placebo group consisted of 150 subjects, while the bicifadine HCl group consisted of 151 individuals.

[2] = yeast-induced pyresis model in rats; assay type: in vivo, rat
Method: (§1) Groups of 6 rats were injected subcutaneously with saline solution or 40% brewers' yeast 18 hours prior to oral administration of bicifadine HCl or aspirin. The yeast was suspended in 0.85% saline and doses in a volume of 10 ml/kg. Rectal temperatures were recorded with a YSI 43TA telethermometer just prior to oral drug administration, and hourly for 3-4 hours. The post-treatment temperatures were compared to the initial temperatures of each group. Control animals were treated with vehicle and tested concurrently. In FIG. 1, the solid line represents the mean rectal temperature of normal rats (99.5° F.) and the standard error of that measure (0.1° F.) is indicated by the dashed lines.
(§2) The results shown in FIG. 1 indicate that rats treated with brewers' yeast 18 hours prior to drug administration develop a febrile response, manifested as a mean rectal temperature of 101.1° F. In contrast, normal rats treated only with vehicle have a rectal temperature of 99.5° F., 1.6° F. lower than the yeast-treated rats.

[3] = blood pressure in human subjects; assay type: in vivo
[4] = target: T1, recombinant human cyclooxygenase2 (COX2) (Homo sapiens, UniProt P35354); assay: COX2 PGE2 synthesis assay; details: 0.1, 1, or 10 μM
T1 sequence (P35354 18-604): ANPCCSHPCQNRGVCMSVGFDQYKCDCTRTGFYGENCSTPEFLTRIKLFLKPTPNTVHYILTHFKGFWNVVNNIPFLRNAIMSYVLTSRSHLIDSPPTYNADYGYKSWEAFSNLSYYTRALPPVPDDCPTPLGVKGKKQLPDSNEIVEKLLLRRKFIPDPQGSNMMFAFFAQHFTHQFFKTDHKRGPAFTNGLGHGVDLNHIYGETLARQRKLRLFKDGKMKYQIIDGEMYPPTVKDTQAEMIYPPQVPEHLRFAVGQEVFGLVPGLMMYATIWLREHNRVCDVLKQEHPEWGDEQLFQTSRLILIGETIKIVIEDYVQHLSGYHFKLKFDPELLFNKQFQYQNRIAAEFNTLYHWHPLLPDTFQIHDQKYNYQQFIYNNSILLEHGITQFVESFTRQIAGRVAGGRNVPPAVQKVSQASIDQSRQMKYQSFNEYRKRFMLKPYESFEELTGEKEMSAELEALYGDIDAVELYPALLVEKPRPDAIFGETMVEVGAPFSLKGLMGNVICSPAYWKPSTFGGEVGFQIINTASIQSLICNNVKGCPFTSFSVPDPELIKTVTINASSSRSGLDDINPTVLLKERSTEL
Method: This was determined in assays using the rate limiting enzyme for prostaglandin synthesis, recombinant human cyclooxygenasel (COX1) and cyclooxygenase2 (COX2) expressed in Sf9 cells using a modified technique of Glaser et al (1995). These cells were incubated with arachidonic acid as the substrate (4, and 2 μM, respectively) and 0.1, 1, or 10 μM concentrations of bicifadine HCl in a suitable assay buffer. The assay mixture was incubated (10 min at 25° C. for COX1, 5 min-at 22° C. for COX2), then stopped and the amount of reaction product (PGE2) formed was measured by an enzyme-linked immunosorbent assay.

[5] = average body temperature of normal rats; assay type: in vivo, rat; details: for Mean Rectal Temperature at Indicated Hours Post-Treatment: 100 mg/kg PO
Method: as §1, §2

[6] = target: 5-HT2A serotonin receptor (Homo sapiens, UniProt P28223); assay: radioligand binding to 5-HT2A serotonin receptor
5-HT2A serotonin receptor, sequence (P28223 whole entry): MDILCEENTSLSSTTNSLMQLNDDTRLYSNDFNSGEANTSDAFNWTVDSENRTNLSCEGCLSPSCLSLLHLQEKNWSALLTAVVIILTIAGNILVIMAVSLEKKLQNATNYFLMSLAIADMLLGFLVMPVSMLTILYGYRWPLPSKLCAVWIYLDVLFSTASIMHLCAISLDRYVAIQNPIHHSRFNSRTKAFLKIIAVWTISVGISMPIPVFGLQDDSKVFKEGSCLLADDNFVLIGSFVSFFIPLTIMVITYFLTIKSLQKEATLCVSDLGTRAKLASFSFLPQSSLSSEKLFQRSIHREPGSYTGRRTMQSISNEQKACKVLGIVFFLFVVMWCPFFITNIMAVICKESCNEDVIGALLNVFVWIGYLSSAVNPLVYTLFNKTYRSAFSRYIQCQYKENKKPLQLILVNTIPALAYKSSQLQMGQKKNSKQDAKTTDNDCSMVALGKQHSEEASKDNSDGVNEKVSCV

[7] = target: recombinant human cyclooxygenase1 (COX1) (Homo sapiens, UniProt P23219); assay: COX1 PGE2 synthesis assay; details: 0.1, 1, or 10 μM
recombinant human cyclooxygenase1 (COX1), sequence (P23219 24-599): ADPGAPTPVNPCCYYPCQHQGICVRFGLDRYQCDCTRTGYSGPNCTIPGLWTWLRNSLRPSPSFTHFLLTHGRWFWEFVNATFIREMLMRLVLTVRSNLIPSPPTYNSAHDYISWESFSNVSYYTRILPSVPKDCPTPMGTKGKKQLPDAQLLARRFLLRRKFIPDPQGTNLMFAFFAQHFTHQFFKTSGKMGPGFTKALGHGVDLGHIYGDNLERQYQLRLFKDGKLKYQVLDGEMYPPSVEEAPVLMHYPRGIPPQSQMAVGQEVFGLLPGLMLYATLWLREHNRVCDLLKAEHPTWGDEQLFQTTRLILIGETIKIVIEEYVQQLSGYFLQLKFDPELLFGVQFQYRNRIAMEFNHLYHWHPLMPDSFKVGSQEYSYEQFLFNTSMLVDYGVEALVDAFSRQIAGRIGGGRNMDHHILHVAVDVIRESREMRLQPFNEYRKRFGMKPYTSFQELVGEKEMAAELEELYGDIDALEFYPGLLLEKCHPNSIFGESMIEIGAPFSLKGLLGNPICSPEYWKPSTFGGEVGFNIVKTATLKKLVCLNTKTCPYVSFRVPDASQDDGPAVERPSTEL
Method: The assay mixture was incubated (10 min at 25° C. for COX1, 5 min-at 22° C. for COX2), then stopped and the amount of reaction product (PGE2) formed was measured by an enzyme-linked immunosorbent assay.

## Cc1ccc([C@]23CNC[C@H]2C3)cc1 (racemic) [Bicifadine HCl, (±)-1-(4-methylphenyl)-3-azabicyclo[3.1.0]hexane hydrochloride]
α1 adrenergic receptor
  occupying binding sites on α1 adrenergic receptor: capable of occupying binding sites
α1 adrenergic receptor; 0.25 nM [3H]prazosin, 60 min at 22° C.
  Ki: 1 µM
α2 adrenergic receptor
  occupying binding sites on α2 adrenergic receptor: capable of occupying binding sites
[1]
  effect on normal human oral temperature (hypothermia): did not consistently lower normal human oral temperature
[1]; 0.5 hr
  Oral Temperature at Indicated Times of Treatment: 98.1 ° F.
[1]; 1 hr
  Oral Temperature at Indicated Times of Treatment: 98.1 ° F.
[1]; 2 hr
  Oral Temperature at Indicated Times of Treatment: 98.1 ° F.
[1]; 3 hr
  Oral Temperature at Indicated Times of Treatment: 98.0 ° F.
[1]; 4 hr
  Oral Temperature at Indicated Times of Treatment: 98.1 ° F.
[1]; 5 hr
  Oral Temperature at Indicated Times of Treatment: 98.2 ° F.
[1]; 6 hr
  Oral Temperature at Indicated Times of Treatment: 98.2 ° F.
[1]; Follow-up
  Oral Temperature at Indicated Times of Treatment: 97.8 ° F.
[1]; Pre-Dose
  Oral Temperature at Indicated Times of Treatment: 98.1 ° F.
[2]; 50 mg/kg PO, by the first hour after administration, vs pre-treatment temperature
  rectal temperature of yeast-fevered rats: significantly reduced rectal temperature
[2]; 100 mg/kg PO
  duration of antipyretic effect: 4 h
[2]; 100 mg/kg PO, normal rat temperature 99.5 °F
  rectal temperature of yeast-fevered rats: decrease rectal temperature to levels at or below normal
[2]; aspirin 200 mg/kg PO
  antipyretic potency compared with aspirin: more potent antipyretic than aspirin
[3]
  alterations in blood pressure: did not cause significant alterations in blood pressure
[4]
  inhibitory effect on PGE2 synthesis by COX2: no significant inhibitory effect
[5]
  effect on rectal temperature of normal rats (hypothermia): did not consistently lower the rectal temperature of normal rats
[5]; 0 h
  Mean Rectal Temperature at Indicated Hours Post-Treatment: 98.9 ° F.
[5]; 1 h
  Mean Rectal Temperature at Indicated Hours Post-Treatment: 97.9* ° F.
[5]; 2 h
  Mean Rectal Temperature at Indicated Hours Post-Treatment: 98.3 ° F.
[5]; 3 h
  Mean Rectal Temperature at Indicated Hours Post-Treatment: 98.2 ° F.
[5]; 4 h
  Mean Rectal Temperature at Indicated Hours Post-Treatment: 97.5 ° F.
[6]
  inhibition of radioligand binding to 5-HT2A serotonin receptor: significantly inhibited radioligand binding
[7]
  inhibitory effect on PGE2 synthesis by COX1: no significant inhibitory effect
